What was measured:
Test in all cases: THT disappearance with recombinant cDNA-expressed enzyme microsomes
Type in all cases: in vitro ADME
CYP2B6 = molecular target: T1, CYP2B6 (Homo sapiens, UniProt P20813); details: 25μM THT, 35pmol CYP/mL
T1 construct: purchased BD Biosciences; host or cells: baculovirus infected insect cells
T1 sequence (P20813 1-491): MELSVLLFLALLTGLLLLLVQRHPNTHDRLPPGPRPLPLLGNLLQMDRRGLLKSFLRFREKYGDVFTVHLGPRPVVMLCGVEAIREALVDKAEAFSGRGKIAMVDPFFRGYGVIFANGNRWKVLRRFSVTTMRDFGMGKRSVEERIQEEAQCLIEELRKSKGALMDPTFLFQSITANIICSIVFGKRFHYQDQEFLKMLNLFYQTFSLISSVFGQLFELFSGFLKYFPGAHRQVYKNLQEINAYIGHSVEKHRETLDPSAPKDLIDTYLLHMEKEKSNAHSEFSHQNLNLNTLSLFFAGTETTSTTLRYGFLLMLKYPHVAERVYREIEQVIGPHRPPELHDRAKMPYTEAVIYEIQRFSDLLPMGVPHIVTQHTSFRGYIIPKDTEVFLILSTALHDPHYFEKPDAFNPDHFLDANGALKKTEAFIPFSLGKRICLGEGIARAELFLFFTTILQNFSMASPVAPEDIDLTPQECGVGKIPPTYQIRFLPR
Experimental: (§1) To identify the enzymes involved in Bu metabolism, 11 microsomal batches (BD Biosciences, Stockholm, Sweden), each containing a separate cDNA-expressed enzyme, were incubated with 25μM THT. The microsomes contained FMO3, CYP1A1, CYP1A2, CYP2B6, CYP2C8, CYP2C9, CYP2C19, CYP2D6, CYP2E1, CYP3A4 or CYP4A11. Time curves (0, 5, 15, 30 and 60min) were performed at a concentration of 0.35mg protein /mL for FMO3 and 35pmol CYP/mL for the CYP enzymes. The recombinant enzymes were produced from human cDNA expressing each of them using baculovirus expression system. Baculovirus infected insect cells were used to prepare these microsomes.
(§2) Incubations were performed in triplicate and negative controls (excluding NADPH, microsomes, THT or by terminating the incubations before the addition of NADPH) were run in parallel.
(§3) To measure THT and the secondary metabolite, sulfolane, the reactions were terminated by adding dichloromethane. Samples (180μL) were added to 10μM nicotine (20μL, Merck, Hoherbrunn, Germany), used as an internal standard, before extraction. The matrix was extracted by liquid-liquid extraction with dichloromethane (equal volumes, 200μL) after 30 sec of high speed vortexing. After extraction and centrifugation at 16000 g for 10 min, the organic phase was transferred into GC-MS tubes. […] Samples (180μL) were added to 10 μM of 3-methylsulfolane (20μL, TCI, Tokyo, Japan), used as an internal standard. The matrix was lyophilized (< 1 mbar at 40°C under N2 stream) to dryness, the residue was dissolved in 10 μL water and 200 μL of ethyl acetate was added for extraction. Samples were vortexed for 30 sec at high speed and centrifuged at 16000 g for 10 min. The organic phase was transferred to GC-MS tubes.
(§4) Concentrations of THT and its metabolites were measured using GC-MS [18] after validation for use with microsomal incubations according to the international guidelines.

CYP2E1 = molecular target: T2, CYP2E1 (Homo sapiens, UniProt P05181); details: 25μM THT, 35pmol CYP/mL
T2 construct: purchased BD Biosciences; host or cells: baculovirus infected insect cells
T2 sequence (P05181 whole entry): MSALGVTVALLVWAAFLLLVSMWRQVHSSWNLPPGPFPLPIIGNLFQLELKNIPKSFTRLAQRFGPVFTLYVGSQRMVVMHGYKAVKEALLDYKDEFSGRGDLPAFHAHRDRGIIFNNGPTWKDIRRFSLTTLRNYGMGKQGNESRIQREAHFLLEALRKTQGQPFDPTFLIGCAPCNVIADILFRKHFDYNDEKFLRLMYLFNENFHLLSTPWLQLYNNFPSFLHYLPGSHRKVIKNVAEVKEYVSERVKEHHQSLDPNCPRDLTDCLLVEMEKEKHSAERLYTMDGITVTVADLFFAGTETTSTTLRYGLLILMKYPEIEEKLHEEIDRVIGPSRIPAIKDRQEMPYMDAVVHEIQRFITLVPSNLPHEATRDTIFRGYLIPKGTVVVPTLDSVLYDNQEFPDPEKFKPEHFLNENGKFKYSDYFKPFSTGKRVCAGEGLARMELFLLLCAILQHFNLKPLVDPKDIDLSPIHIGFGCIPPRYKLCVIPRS
Experimental: as §1, §2, §3, §4

CYP2C9 = molecular target: T3, CYP2C9 (Homo sapiens, UniProt P11712); details: 25μM THT, 35pmol CYP/mL
T3 construct: purchased BD Biosciences; host or cells: baculovirus infected insect cells
T3 sequence (P11712 whole entry): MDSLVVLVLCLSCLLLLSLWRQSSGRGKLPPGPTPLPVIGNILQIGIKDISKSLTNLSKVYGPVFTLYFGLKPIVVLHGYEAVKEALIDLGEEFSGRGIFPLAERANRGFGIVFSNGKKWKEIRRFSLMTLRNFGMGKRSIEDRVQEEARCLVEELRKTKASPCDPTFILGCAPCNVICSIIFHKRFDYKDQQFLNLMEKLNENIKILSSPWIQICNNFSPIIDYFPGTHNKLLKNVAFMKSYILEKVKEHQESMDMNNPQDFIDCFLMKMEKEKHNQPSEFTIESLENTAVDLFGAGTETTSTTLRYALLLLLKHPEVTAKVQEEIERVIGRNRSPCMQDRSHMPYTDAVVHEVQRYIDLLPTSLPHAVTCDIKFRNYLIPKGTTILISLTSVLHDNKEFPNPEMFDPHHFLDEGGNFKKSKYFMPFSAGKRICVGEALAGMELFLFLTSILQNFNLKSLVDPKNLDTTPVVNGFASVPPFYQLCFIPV
Experimental: as §1, §2, §3, §4

FMO3 = molecular target: T4, FMO3 (Homo sapiens, UniProt P31513); details: 25μM THT, 0.35mg protein/mL
T4 construct: purchased BD Biosciences; host or cells: baculovirus infected insect cells
T4 sequence (P31513 1-532): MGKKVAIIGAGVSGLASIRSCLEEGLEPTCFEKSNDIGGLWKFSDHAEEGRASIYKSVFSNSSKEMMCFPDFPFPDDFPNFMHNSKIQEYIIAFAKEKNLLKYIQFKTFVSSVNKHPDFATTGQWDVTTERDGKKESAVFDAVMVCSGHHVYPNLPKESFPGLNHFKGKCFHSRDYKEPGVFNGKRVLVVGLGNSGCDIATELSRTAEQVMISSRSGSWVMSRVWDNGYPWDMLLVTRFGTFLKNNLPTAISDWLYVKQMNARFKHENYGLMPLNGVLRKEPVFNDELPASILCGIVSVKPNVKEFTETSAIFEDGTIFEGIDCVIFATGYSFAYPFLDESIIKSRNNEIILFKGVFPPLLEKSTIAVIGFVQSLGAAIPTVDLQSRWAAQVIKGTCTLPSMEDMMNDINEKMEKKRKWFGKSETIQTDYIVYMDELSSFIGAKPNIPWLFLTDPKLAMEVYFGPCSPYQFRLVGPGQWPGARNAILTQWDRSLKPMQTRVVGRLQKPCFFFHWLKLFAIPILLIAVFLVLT
Experimental: as §1, §2, §3, §4

CYP1A1 = molecular target: T5, CYP1A1 (Homo sapiens, UniProt P04798); details: 25μM THT, 35pmol CYP/mL
T5 construct: purchased BD Biosciences; host or cells: baculovirus infected insect cells
T5 sequence (P04798 1-512): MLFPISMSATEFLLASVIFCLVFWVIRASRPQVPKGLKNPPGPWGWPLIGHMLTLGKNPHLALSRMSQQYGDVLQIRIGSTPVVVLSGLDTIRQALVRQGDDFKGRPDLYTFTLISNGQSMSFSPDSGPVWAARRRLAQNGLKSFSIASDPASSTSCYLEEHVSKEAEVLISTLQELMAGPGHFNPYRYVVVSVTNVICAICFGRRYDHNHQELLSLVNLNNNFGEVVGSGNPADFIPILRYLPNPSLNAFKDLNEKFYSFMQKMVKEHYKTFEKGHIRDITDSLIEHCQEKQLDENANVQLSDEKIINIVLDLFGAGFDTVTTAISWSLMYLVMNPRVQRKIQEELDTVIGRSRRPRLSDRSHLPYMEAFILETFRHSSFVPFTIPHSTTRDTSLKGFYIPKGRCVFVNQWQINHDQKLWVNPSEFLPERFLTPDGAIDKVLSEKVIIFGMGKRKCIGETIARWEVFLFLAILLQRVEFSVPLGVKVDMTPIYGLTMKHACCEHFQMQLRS
Experimental: as §1, §2, §3, §4

C1CCSC1 [THT, tetrahydrothiophene]
v0 (CYP2B6): 1.76 nmol/min/mL
v0/CYP (CYP2B6): 0.05 nmol/min/pmol CYP
v0 (CYP2E1): 1.41 nmol/min/mL
v0/CYP (CYP2E1): 0.04 nmol/min/pmol CYP
v0 (CYP2C9): 1.64 nmol/min/mL
v0/CYP (CYP2C9): 0.05 nmol/min/pmol CYP
THT disappeared (metabolized) by recombinant FMO3 (FMO3; within 15min): 96%
CLint value (FMO3; FMO3): 709.14 μL/min/mg protein
v0 (FMO3; FMO3): 6.87 nmol/min/mL
v0 (CYP1A1): 1.68 nmol/min/mL
v0/CYP (CYP1A1): 0.05 nmol/min/pmol CYP
